Literature values as cited in patent US4203975A, “Psychopharmacological peptides suitable for therapeutic administration” (Akzona Incorporated, priority 1977, dated 1980).

How the values were obtained:
[1] = prior art
rats = rats from which the hypophysis or the posterior lobe thereof has been removed

| Molecule | pressor activity [1] | inhibition of the extinction of the conditioned flight response (rats) |
| --- | --- | --- |
| NC(=O)CC[C@@H]1NC(=O)[C@H](Cc2ccccc2)NC(=O)[C@H](Cc2ccc(O)cc2)NC(=O)[C@@H](N)CSSC[C@@H](C(=O)N2CCC[C@H]2C(=O)N[C@@H](CCCN=C(N)N)C(=O)NCC(N)=O)NC(=O)[C@H](CC(N)=O)NC1=O [vasopressin] | extremely powerful pressor activity | – |
| (Lys)-vasopressin zinc tannate | – | capable of inhibiting the extinction of the conditioned flight response |
